The values that follow come from patent US20240335429A1, “MOLECULAR GLUE AND SALL4 DEGRADER” (National University of Singapore, priority 2021, published 2024).

The subject of data set [1] is SNU-387, SNU-449, SNU-475, and H1299 cells. Kind of data set: CellTiter-Glo viability assay, SALL4-low cell panel. The following applies: 72 h cell viability panel of HCC and lung cancer cell lines. The data set is classed as cell-based, human. On the procedure: (§1) Cells were plated in RPMI culture media (40 μL) in 384-well white, flat-bottom plates (Corning) and incubated at 37° C. in a humidified atmosphere of 5% CO2 overnight. The numbers of cells per well were 1,500 for SNU-398 and SNU-182, 750 for SNU-387, SNU-449, SNU-475 and SNU-423, and 1,000 for H661 and H1299. After overnight incubation, 10 μL of drug (1% DMSO in RPMI) at designed concentrations were added to the cells. The cells were then incubated for 16, 24, 48, 72, or 96 h at 37° C. in a humidified atmosphere of 5% CO2 before CellTiter-Glo reagent (10 μL) was dispensed to the wells. The cells were incubated at room temperature for a minimum of 10 min. After that, luminescence readings were recorded by a Microplate Reader (PHERAstar or Tecan Infinite M200 Pro) according to the manufacturer's instruction for measuring the luminescence.
(In general: ATP-based viability assays read luminescence as a measure of living cells.)

Test in data set [2]: as above
The following applies: human, SNU-387, SNU-449, SNU-475 and H1299 cells (SALL4-low); SALL4-low cells, highest dose 30 μM, 72 h; read-out: cells remained viable. The data set is classed as cell-based, human. On the procedure:
as §1

Another data set addresses T1, SALL4B (Homo sapiens, UniProt Q9UJQ4).
T1 construct: endogenous in cells; host or cells: SNU-398 HCC cells
T1 sequence (Q9UJQ4 1-616 isoform Q9UJQ4-2): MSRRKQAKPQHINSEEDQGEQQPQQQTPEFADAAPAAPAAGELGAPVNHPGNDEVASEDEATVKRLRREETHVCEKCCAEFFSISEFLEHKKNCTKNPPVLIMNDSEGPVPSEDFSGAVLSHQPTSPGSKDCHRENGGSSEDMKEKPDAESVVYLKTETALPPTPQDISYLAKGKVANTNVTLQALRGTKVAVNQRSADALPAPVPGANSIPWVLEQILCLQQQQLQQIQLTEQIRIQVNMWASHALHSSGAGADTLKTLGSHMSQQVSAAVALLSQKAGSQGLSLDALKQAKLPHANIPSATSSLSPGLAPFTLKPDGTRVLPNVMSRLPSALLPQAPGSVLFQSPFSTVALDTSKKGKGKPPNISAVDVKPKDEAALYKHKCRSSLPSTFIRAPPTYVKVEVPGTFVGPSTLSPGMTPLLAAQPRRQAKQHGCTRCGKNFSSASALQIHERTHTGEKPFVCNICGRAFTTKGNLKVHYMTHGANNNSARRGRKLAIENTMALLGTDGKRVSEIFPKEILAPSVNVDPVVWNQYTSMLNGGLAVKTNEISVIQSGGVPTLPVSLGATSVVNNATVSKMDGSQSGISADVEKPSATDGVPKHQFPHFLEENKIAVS
Kind of data set: Immunoblot of endogenous SALL4B in SNU-398 HCC cells. Format: cell-based. The procedure: RIPA buffer containing freshly added protease inhibitors (2 mM PMSF) and protease inhibitor cocktail was used for cell lysis. The lysed cells were incubated for 10 min on ice and subsequently centrifuged at 4° C. for 10 min at 14,000 rpm. The protein concentrations of cell lysates were assessed using Bradford Assay as per manufacturer's instructions. The samples were denatured using 4× Sample buffer at 95° C. for 5 min. The samples were size resolved using polyacrylamide gel (8%) and Mini-PROTEAN Tetra Cell module. The size-resolved proteins were transferred onto PVDF via electroblotting using Mini Trans-Blot® module. The membrane was blocked using 5% BSA in TBST. The membrane was incubated with appropriate primary antibody (overnight) and secondary antibody (1 h). Immobilon Crescendo Western HRP substrate was used for signal development and images were acquired using darkroom development techniques.
A head-to-head comparison between the newly discovered SALL4 degrader QE-18-WG07 and IMiDs (Pomalidomide and Thalidomide) was performed. To assess the differential isoform degradation and biological consequences induced by QE-18-WG07 and IMiDs in cancer cells, the inventors employed the newly developed SALL4 isoform-specific cellular luciferase reporter system in Example 1 (FIG. 1A), and human HCC cell lines (SNU-398 and SNU-182), and NSCLC cell line H661 that have a high SALL4 level endogenously. The inventors treated H1299 cells overexpressing SALL4B_Nluc and the HCC (SNU-398, SNU-182) and NSCLC cells (H661) with increasing concentrations of QE-18-WG07 and IMiDs, and assayed the SALL4B_Nluc, as well as the endogenous SALL4A and B levels by immunoblots described in Example 4.
26S proteasome complex and neddylation was inhibited by cotreating MG132 at 1 and 3 μM and MLN4924 at 10 and 15 μM for 18 h, 20 h, 24 h or 48 h with desired concentrations of QE-18-WG07 in SNU-398, H661 and SNU-182 cells. After 18 h or 24 h of treatment, cells were then lysed and subjected to further protein extraction and immunoblotting by following the protocol in Example 4. For caspase glo assay, 20 h of cotreatment was performed by following the protocol in Example 5. For viability assay, 48 h of cotreatment was carried out by following the protocol in Example 5.
For lentiviral transduction, SNU-398 cells were spun with lentiviral particles containing the aforementioned vectors in RPMI (plus 10% FBS, 8 μg/mL polybrene) at 800 g for 60 minutes at room temperature. 96 h post-infection, cells were seeded in 6-well or 384-well plates and incubated overnight at 37° C., 5% CO2. Cells were then treated with DMSO or QE-18-WG07 at desired concentrations (0.5% final DMSO) for 18 h and 24 h. Immunoblot analysis was subsequently performed with the indicated antibodies by following the protocol in Example 4. […]
A general note: Immunoblotting shows a protein as a band on a membrane.

`COc1ccccc1NC(=O)Nc1ccc([N+](=O)[O-])cc1O` [QE-18-WG07]: the “selectivity of anti-proliferative effect, SALL4-high over SALL4-low cancer cells” value in data set [1] is “up to 58 fold”. For the same compound, in data set [2], the viability at 72 h, 30 μM was in the range of 30 to 60%. Moreover, the “degradation of endogenous SALL4B after CRBN knockdown by shRNA” value on SALL4B (CRBN-KD SNU-398 cells, 18 h) is on record as “prevented”. Further, the “SALL4B degradation under MG132 or MLN4924 cotreatment” value at SALL4B (SNU-398, SNU-182 and H661 cells) was “chemically rescued”. At SALL4B (SNU-398 HCC cells, 24 h of treatment, immunoblot quantification), the Dmax was 87%. In addition, the DC50 at SALL4B (SNU-398 cells, 24 h, immunoblot quantification) is ~640 nM.
